Assay results from ChEMBL document CHEMBL1201862, “PubChem BioAssay data set” (2004).
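Following 48 hours of exposure in 96-well plates, responses at five concentrations were used to interpolate endpoints linearly. GI50 is the concentration that inhibits growth by half.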 Activity calls are given as the source filed them. Rule as the data show it: active = GI50 up to about 1.1 µM and inactive = higher.

How the values were obtained:
Assay in all cases: NCI tumour cell line growth inhibition, 48 h
[1] = tested on: SF-295
[2] = tested on: CAKI-1
[3] = tested on: LOX IMVI
[4] = tested on: UACC-257
[5] = tested on: NCI-H226
[6] = tested on: U-251
[7] = tested on: SW-620
[8] = tested on: SNB-75
[9] = tested on: NCI/ADR-RES
[10] = tested on: MDA-MB-435
[11] = tested on: HCC 2998
[12] = tested on: BT-549
[13] = tested on: SN12C
[14] = tested on: MDA-N
[15] = tested on: OVCAR-3
[16] = tested on: EKVX
[17] = tested on: SF-539
[18] = tested on: SK-MEL-5
[19] = tested on: OVCAR-4

Measured: GI50

CSCCC(NC(=O)C(Cc1c[nH]c2ccccc12)NC(=O)CCNC(=O)OC(C)(C)C)C(=O)NC(CC(=O)O)C(=O)NC(Cc1ccccc1)C(N)=O (stereo not given)
inactive: [1] > 50 µM | [2] > 50 µM | [3] > 50 µM | [4] > 50 µM | [5] > 50 µM | [6] > 50 µM | [7] > 50 µM | [8] > 50 µM | [9] > 50 µM | [10] > 50 µM | [11] > 50 µM | [12] > 50 µM | [13] > 50 µM | [14] > 50 µM | [15] > 50 µM | [16] > 50 µM | [17] > 50 µM | [18] > 50 µM

Cn1c(=O)c2c(nc(N)n2C2OC(CO)C(O)C2O)n(C)c1=O (stereo not given)
inactive: [1] > 100 µM | [2] > 100 µM | [3] > 100 µM | [4] > 100 µM | [5] > 100 µM | [6] > 100 µM | [7] > 100 µM | [8] > 100 µM | [9] > 100 µM | [19] > 100 µM | [10] > 100 µM | [11] > 100 µM | [12] > 100 µM | [13] > 100 µM | [14] > 100 µM | [15] > 100 µM | [16] > 100 µM | [17] > 100 µM | [18] > 100 µM

N#Cc1nc(C2CC2)oc1N
inactive: [1] > 100 µM | [2] > 100 µM | [3] > 100 µM | [4] > 100 µM | [5] > 100 µM | [6] > 100 µM | [7] > 100 µM | [8] > 100 µM | [9] > 100 µM | [19] > 100 µM | [10] > 100 µM | [11] > 100 µM | [12] > 100 µM | [13] > 100 µM | [14] > 100 µM | [15] > 100 µM | [16] > 100 µM | [17] > 100 µM

Cc1cn(C2CC(N=[N+]=[N-])C(CO)O2)c(=O)n(CCCCBr)c1=O (stereo not given)
inactive: [1] > 100 µM | [2] > 100 µM | [3] 89.7 µM | [4] > 100 µM | [5] > 100 µM | [6] 18.8 µM | [7] > 100 µM | [8] 63.2 µM | [9] 63.8 µM | [19] > 100 µM | [10] 80.4 µM | [11] 65.5 µM | [12] > 100 µM | [13] 59.3 µM | [14] > 100 µM | [15] 40.9 µM | [16] > 100 µM | [17] > 100 µM

C#C[C@]1(O)CC[C@H]2[C@@H]3CCc4cc(OC(=O)c5cccc6cc7ccccc7nc56)ccc4[C@H]3CC[C@@]21C
inactive: [2] 23 µM | [3] 20.5 µM | [4] 63.4 µM | [5] 33.2 µM | [6] 24 µM | [7] 29.7 µM | [8] 31.2 µM | [9] 28.8 µM | [19] 38.4 µM | [10] 31.2 µM | [11] 29.4 µM | [12] 74 µM | [13] 20.9 µM | [14] 25.5 µM | [15] 21.4 µM | [16] 12.9 µM | [17] 31.6 µM | [18] 13.6 µM

Cc1nc(Nc2ccccc2Cl)sc1C(=O)CC(=O)C(N)=O
inactive: [1] 34.8 µM | [2] > 100 µM | [3] 27.4 µM | [4] > 100 µM | [5] 22.7 µM | [6] 41.9 µM | [7] 29 µM | [8] 6.87 µM | [9] 31.3 µM | [19] > 100 µM | [10] 16 µM | [11] 51.4 µM | [12] > 100 µM | [13] 37.8 µM | [14] 19.4 µM | [15] > 100 µM | [16] 18.2 µM | [17] 76.4 µM

O=C1/C(=C/c2cccc(Cl)c2)CCCc2ccccc21
inactive: [1] 17.5 µM | [2] 24.1 µM | [3] 17.8 µM | [4] 19.1 µM | [5] 16.1 µM | [6] 15.8 µM | [7] 16.9 µM | [8] 15.6 µM | [9] 18.4 µM | [19] 15.8 µM | [10] 16.2 µM | [11] 17.2 µM | [12] 19.7 µM | [13] 18.2 µM | [14] 16.9 µM | [15] 23.7 µM | [16] 16.7 µM | [17] 17.9 µM

Cc1ccc2cc3c(ccc4ccccc43)c3c2c1CC3 [3-METHYLCHOLANTHRENE]
inactive: [1] > 100 µM | [2] > 100 µM | [3] > 100 µM | [4] > 100 µM | [5] > 100 µM | [6] > 100 µM | [7] > 100 µM | [8] > 100 µM | [9] > 100 µM | [10] > 100 µM | [11] > 100 µM | [12] > 100 µM | [13] > 100 µM | [14] > 100 µM | [15] > 100 µM | [16] 75.5 µM | [17] > 100 µM | [18] > 100 µM
